Test results: patent publication US8026359B2, “Fungicidal heterocyclic amines” (E.I. du Pont de Nemours and Company, priority 2007, dated 2011)

Assays:
Assay type in all cases: in vivo
Fusarium graminearum = experiment: whole plant or invertebrate; details: for pest or weed control at 200 ppm: Fusarium graminearum, in Triticum aestivum, 192 h, read-out: Test E disease control rating; for Test E disease control rating: 200 ppm, 100 = 100% disease control, 0 = no control relative to controls
Septoria tritici = experiment: Test D: wheat leaf blotch, preventive spray on wheat seedlings; details: 200 ppm, 100 = 100% disease control, 0 = no control relative to controls; for pest or weed control at 200 ppm: Zymoseptoria tritici, 504 h, read-out: Test D disease control rating
Excerpt: (§1) General protocol for preparing test suspensions for Tests A-R: The test compounds were first dissolved in acetone in an amount equal to 3% of the final volume and then suspended at the desired concentration (in ppm) in acetone and purified water (50/50 mix) containing 250 ppm of the surfactant Trem® 014 (polyhydric alcohol esters). The resulting test suspensions were then used in tests A-R. In Tests A-M, compounds were sprayed as a 200 ppm test suspension (equivalent to a rate of 500 g/ha) or as a 40 ppm test suspension to the point of runoff on the test plants. In Tests N-R, compounds were sprayed as a 100 g/ha test suspension (equivalent to a rate of 100 ppm) on the test plants at an application volume of 1000 L/ha. The test suspension was sprayed to the point of run-off on wheat seedlings.

[1] = tested on: Colletotrichum orbiculare; experiment: Test I: cucumber Colletotrichum anthracnose, preventive spray on cucumber seedlings; details: 100 = 100% disease control, 0 = no control relative to controls; for pest or weed control at 200 ppm: Colletotrichum orbiculare, 144 h, read-out: Test I disease control rating; for Test I disease control rating: 200 ppm
Excerpt: as §1, with “cucumber” for “wheat”

Botrytis cinerea = experiment: Test F: tomato Botrytis, preventive spray on tomato seedlings; details: 200 ppm, 100 = 100% disease control, 0 = no control relative to controls; for pest or weed control at 200 ppm: Botrytis cinerea, 120 h, read-out: Test F disease control rating
Excerpt: as §1, with “tomato” for “wheat”

Septoria nodorum = experiment: Test C: wheat glume blotch, preventive spray on wheat seedlings; details: 200 ppm, 100 = 100% disease control, 0 = no control relative to controls; for pest or weed control at 200 ppm: Parastagonospora nodorum, 216 h, read-out: Test C disease control rating
Excerpt: as §1

[2] = tested on: Erysiphe graminis f. sp. tritici; experiment: Test A: wheat powdery mildew, preventive spray on wheat seedlings; details: 200 ppm, 100 = 100% disease control, 0 = no control relative to controls; for pest or weed control at 200 ppm: Blumeria graminis, 192 h, read-out: Test A disease control rating
Excerpt: as §1

[3] = tested on: Puccinia recondita f. sp. tritici; experiment: Test B: wheat leaf rust, preventive spray on wheat seedlings; details: 200 ppm, 100 = 100% disease control, 0 = no control relative to controls; for pest or weed control at 200 ppm: Puccinia recondita, 192 h, read-out: Test B disease control rating
Excerpt: as §1

SMILES | pest or weed control at 200 ppm (Fusarium graminearum) | pest or weed control at 200 ppm (Septoria tritici) | pest or weed control at 200 ppm [1] | pest or weed control at 200 ppm (Botrytis cinerea) | pest or weed control at 200 ppm (Septoria nodorum) | pest or weed control at 200 ppm [2] | pest or weed control at 200 ppm [3] | Test E disease control rating (Fusarium graminearum) | Test D disease control rating (Septoria tritici) | Test I disease control rating [1] | Test F disease control rating (Botrytis cinerea) | Test C disease control rating (Septoria nodorum) | Test A disease control rating [2] | Test B disease control rating [3]
Fc1cccc(Nc2cc(-c3ccnc(NCC4CCOC4)n3)ccn2)c1 (stereo not shown) [Compound 82, 4-[2-[(3-fluorophenyl)amino]-4-pyridinyl]-N-[(tetrahydro-3-furanyl)methyl]-2-pyrimidinamine] | 0% | 68% | 29% | 0% | 91% | 0% | 98% |  |  |  |  |  |  | 
COCCNc1nccc(-c2ccnc(Nc3cccc(F)c3)c2)n1 [Compound 58] |  |  |  |  |  |  |  | 0% | 36% | 24% | 86% | 99% | 44% | 98%
COCC(C)Nc1nccc(-c2ccnc(Nc3cc(F)ccc3C)c2)n1 (stereo not shown) [Compound 91] |  |  |  |  |  |  |  | 19% | 7% | 0% | 98% | 94% | 97% | 99%
CC(C)Nc1nccc(-c2ccnc(Nc3cccc(F)c3)c2)n1 [Compound 60] |  |  |  |  |  |  |  | 0% | 18% | 0% | 61% | 100% | 97% | 95%
FC(F)(F)c1cccc(Cl)c1Nc1cc(-c2ccnc(NC3CCOCC3)n2)ccn1 [Compound 98] |  |  |  |  |  |  |  | 97% | 83% | 0% | 91% | 99% | 89% | 99%
COCC(C)Nc1nccc(-c2ccnc(Nc3c(Cl)cccc3Cl)c2)n1 (stereo not shown) [Compound 78] |  |  |  |  |  |  |  | 0% | 60% | 98% | 93% | 99% | 39% | 99%
COCC(C)Nc1nccc(-c2cc(Nc3cccc(F)c3)ncn2)n1 (stereo not shown) [Compound 109, N^6′-(3-fluorophenyl)-N^2-(2-methoxy-1-methylethyl) [4,4′-bipyrimidine]-2,6′-diamine] | 0% | 5% | 9% | 0% | 94% | 0% | 96% |  |  |  |  |  |  | 
COC[C@@H](C)Nc1nccc(-c2ccnc(Nc3cccc(F)c3)c2)n1 [Compound 68] |  |  |  |  |  |  |  | 0% | 96% |  | 93% | 99% | 0% | 95%
COCC(C)Nc1nccc(-c2ccnc(Nc3ccc(C#N)cc3)c2)n1 (stereo not shown) [Compound 63] |  |  |  |  |  |  |  | 0% | 41% | 90% | 0% | 0% | 0% | 80%
COCC(C)Nc1nccc(-c2ccnc(Nc3c(C)cc(Cl)cc3Cl)c2)n1 (stereo not shown) [Compound 93] |  |  |  |  |  |  |  | 66% | 78% | 0% | 98% | 100% | 84% | 99%
COCC(C)Nc1nccc(-c2ccnc(Nc3c(C)ccc4ccccc34)c2)n1 (stereo not shown) [Compound 86] |  |  |  |  |  |  |  | 0% | 0% | 0% | 96% | 94% | 27% | 55%
Fc1cccc(Nc2cc(-c3ccnc(NCC4CCCO4)n3)ccn2)c1 (stereo not shown) [Compound 83, 4-[2-[(3-fluorophenyl)amino]-4-pyridinyl]-N-[(tetrahydro-2-furanyl)methyl]-2-pyrimidinamine] | 0% | 92% | 0% | 53% | 99% | 0% | 95% |  |  |  |  |  |  | 
COCC(C)Nc1nccc(-c2ccnc(Nc3c(Cl)cccc3C(F)(F)F)c2)n1 (stereo not shown) [Compound 97] |  |  |  |  |  |  |  | 48% | 67% | 93% | 99% | 100% | 0% | 97%
Clc1cccc(Nc2ncnc(-c3ccnc(NC4CCOCC4)n3)n2)c1 [Compound 4, N-(3-chlorophenyl)-4-[2-[(tetrahydro-2H-pyran-4-yl)amino]-4-pyrimidinyl]-1,3,5-triazin-2-amine] | 0% | 11% | 66% | 0% | 99% | 0% | 91% |  |  |  |  |  |  | 
Cc1cccc(Cl)c1Nc1cc(-c2ccnc(NC3CCOCC3)n2)ccn1 [Compound 80, 4-[2-[(2-chloro-6-methylphenyl)amino]-4-pyridinyl]-N-(tetrahydro-2H-pyran-4-yl)-2-pyrimidinamine] | 98% | 93% | 98% | 99% | 99% | 86% | 100% |  |  |  |  |  |  | 
COCC(C)Nc1nccc(-c2ccnc(Nc3c(C)cccc3Cl)c2)n1 (stereo not shown) [Compound 76, 4-[2-[(2-chloro-6-methylphenyl)amino]-4-pyridinyl]-N-(2-methoxy-1-methylethyl)-2-pyrimidinamine] | 93% | 87% | 72% | 97% | 99% | 36% | 99% |  |  |  |  |  |  | 
CSCCNc1nccc(-c2ccnc(Nc3cccc(F)c3)c2)n1 [Compound 55] |  |  |  |  |  |  |  | 0% | 20% | 0% | 0% | 78% | 0% | 95%
COC[C@H](C)Nc1nccc(-c2ncnc(Nc3cncc(F)c3)n2)n1 [Compound 35] |  |  |  |  |  |  |  | 98% | 7% |  | 91% | 98% | 72% | 100%
CCNNc1nccc(-c2ccnc(Nc3cccc(F)c3)c2)n1 [Compound 66] |  |  |  |  |  |  |  | 64% | 92% |  | 84% | 99% | 0% | 85%
CCCC(C)Nc1nccc(-c2ccnc(Nc3cccc(F)c3)c2)n1 (stereo not shown) [Compound 59] |  |  |  |  |  |  |  | 0% | 0% | 0% | 57% | 99% | 87% | 
